Reference: US9643955B2, “2-pyridyloxy-3-nitrile-4-substituted orexin receptor antagonists” (MERCK SHARP & DOHME CORP., priority 2012, dated 2017)

Assays:
hOX1R [1] = target: T1, hOX1R (Homo sapiens, UniProt O43613); experiment: FLIPR Ca2+ Flux Assay, hOX1R; type: cell-based; parameters: expressed in transfected cells; host or cells: CHO cells; settings: CHO cells expressing orexin-1 receptor; agonist 70 pM Ala-6,12 orexin-A
T1 sequence (O43613 1-425): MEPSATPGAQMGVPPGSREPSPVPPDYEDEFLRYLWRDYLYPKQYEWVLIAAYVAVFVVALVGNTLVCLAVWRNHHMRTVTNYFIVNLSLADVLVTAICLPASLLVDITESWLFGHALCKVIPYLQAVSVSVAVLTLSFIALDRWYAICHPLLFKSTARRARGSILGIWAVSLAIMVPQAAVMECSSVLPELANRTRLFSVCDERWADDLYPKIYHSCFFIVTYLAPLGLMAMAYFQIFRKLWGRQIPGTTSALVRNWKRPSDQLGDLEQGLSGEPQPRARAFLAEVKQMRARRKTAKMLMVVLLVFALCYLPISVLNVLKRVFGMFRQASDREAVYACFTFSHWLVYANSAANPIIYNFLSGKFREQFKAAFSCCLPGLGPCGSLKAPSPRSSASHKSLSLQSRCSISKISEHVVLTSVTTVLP

human orexin-2 receptor = target: T2, human orexin-2 receptor (Homo sapiens, UniProt O43614); experiment: FLIPR Ca2+ Flux Assay, hOX2R; type: cell-based; settings: CHO cells expressing the human orexin-2 receptor; agonist 70 pM Ala-6,12 orexin-A
T2 construct: expressed in transfected cells; host or cells: CHO cells
T2 sequence (O43614 1-444): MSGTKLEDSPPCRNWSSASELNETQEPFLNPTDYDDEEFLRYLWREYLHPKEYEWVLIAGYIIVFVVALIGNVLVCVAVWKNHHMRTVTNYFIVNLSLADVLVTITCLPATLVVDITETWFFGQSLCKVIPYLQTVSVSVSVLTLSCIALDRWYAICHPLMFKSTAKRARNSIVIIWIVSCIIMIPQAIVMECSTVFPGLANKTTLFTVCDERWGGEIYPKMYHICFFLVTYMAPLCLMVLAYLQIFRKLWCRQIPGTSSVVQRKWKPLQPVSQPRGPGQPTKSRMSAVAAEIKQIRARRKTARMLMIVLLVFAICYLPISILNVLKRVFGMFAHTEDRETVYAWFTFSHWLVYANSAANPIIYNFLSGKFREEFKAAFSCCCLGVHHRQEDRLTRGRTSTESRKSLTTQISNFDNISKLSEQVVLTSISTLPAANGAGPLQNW
Procedure: The utility of the compounds in accordance with the present invention as orexin receptor OX1R and/or OX2R antagonists may be readily determined without undue experimentation by methodology well known in the art, including the “FLIPR Ca^2+ Flux Assay” (Okumura et al., Biochem. Biophys. Res. Comm. 280:976-981, 2001). In a typical experiment the OX1 and OX2 receptor antagonistic activity of the compounds of the present invention was determined in accordance with the following experimental method. For intracellular calcium measurements, Chinese hamster ovary (CHO) cells expressing the rat orexin-1 receptor or the human orexin-2 receptor, are grown in Iscove's modified DMEM containing 2 mM L-glutamine, […], 1% hypoxanthine-thymidine supplement, 100 U/ml penicillin, 100 μg/ml streptomycin and 10% heat-inactivated fetal calf serum (FCS). The cells are seeded at 20,000 cells/well into Becton-Dickinson black 384-well clear bottom sterile plates coated with poly-D-lysine. All reagents were from GIBCO-Invitrogen Corp. The seeded plates are incubated overnight at 37° C. and 5% CO2. Ala-6,12 human orexin-A as the agonist is prepared as a 1 mM stock solution in 1% bovine serum albumin (BSA) and diluted in assay buffer (HBSS containing 20 mM HEPES, 0.1% BSA and 2.5 mM probenecid, pH7.4) for use in the assay at a final concentration of 70 pM. Test compounds are prepared as 10 mM stock solution in DMSO, then diluted in 384-well plates, first in DMSO, then assay buffer. On the day of the assay, cells are washed 3 times with 100 μl assay buffer and then incubated for 60 min (37° C., 5% CO2) in 60 μl assay buffer containing 1 μM Fluo-4AM ester, 0.02% pluronic acid, and 1% BSA. The dye loading solution is then aspirated and cells are washed 3 times with 100 μl assay buffer. 30 μl of that same buffer is left in each well. Within the Fluorescent Imaging Plate Reader (FLIPR, Molecular Devices), test compounds are added to the plate in a volume of 25 μl, incubated for 5 min and finally 25 μl of agonist is added. Fluorescence is measured for each well at 1 second intervals for 5 minutes and the height of each fluorescence peak is compared to the height of the fluorescence peak induced by 70 pM Ala-6,12 orexin-A with buffer in place of antagonist. For each antagonist, IC50 value (the concentration of compound needed to inhibit 50% of the agonist response) is determined Alternatively, compound potency can be assessed by a radioligand binding assay (described in Bergman et. al. Bioorg. Med. Chem. Lett. 2008, 18, 1425-1430) in which the inhibition constant (Ki) is determined in membranes prepared from CHO cells expressing either the OX1 or OX2 receptor. The intrinsic orexin receptor antagonist activity of a compound which may be used in the present invention may be determined by these assays.

hOX1R [2] = target: T1, hOX1R; experiment: radioligand binding assay, hOX1R; parameters: expressed in transfected cells; host or cells: membranes of CHO cells; settings: membranes prepared from CHO cells expressing the OX1 receptor; read-out: hOX1R BIND hKi
Procedure: (§1) The utility of the compounds in accordance with the present invention as orexin receptor OX1R and/or OX2R antagonists may be readily determined without undue experimentation by methodology well known in the art, including the “FLIPR Ca^2+ Flux Assay” (Okumura et al., Biochem. Biophys. Res. Comm. 280:976-981, 2001). In a typical experiment the OX1 and OX2 receptor antagonistic activity of the compounds of the present invention was determined in accordance with the following experimental method. For intracellular calcium measurements, Chinese hamster ovary (CHO) cells expressing the rat orexin-1 receptor or the human orexin-2 receptor, are grown in Iscove's modified DMEM containing 2 mM L-glutamine, […], 1% hypoxanthine-thymidine supplement, 100 U/ml penicillin, 100 μg/ml streptomycin and 10% heat-inactivated fetal calf serum (FCS). The cells are seeded at 20,000 cells/well into Becton-Dickinson black 384-well clear bottom sterile plates coated with poly-D-lysine. All reagents were from GIBCO-Invitrogen Corp. The seeded plates are incubated overnight at 37° C. and 5% CO2. Ala-6,12 human orexin-A as the agonist is prepared as a 1 mM stock solution in 1% bovine serum albumin (BSA) and diluted in assay buffer (HBSS containing 20 mM HEPES, 0.1% BSA and 2.5 mM probenecid, pH7.4) for use in the assay at a final concentration of 70 pM. Test compounds are prepared as 10 mM stock solution in DMSO, then diluted in 384-well plates, first in DMSO, then assay buffer. On the day of the assay, cells are washed 3 times with 100 μl assay buffer and then incubated for 60 min (37° C., 5% CO2) in 60 μl assay buffer containing 1 μM Fluo-4AM ester, 0.02% pluronic acid, and 1% BSA. The dye loading solution is then aspirated and cells are washed 3 times with 100 μl assay buffer. 30 μl of that same buffer is left in each well. Within the Fluorescent Imaging Plate Reader (FLIPR, Molecular Devices), test compounds are added to the plate in a volume of 25 μl, incubated for 5 min and finally 25 μl of agonist is added. Fluorescence is measured for each well at 1 second intervals for 5 minutes and the height of each fluorescence peak is compared to the height of the fluorescence peak induced by 70 pM Ala-6,12 orexin-A with buffer in place of antagonist. […] The intrinsic orexin receptor antagonist activity of a compound which may be used in the present invention may be determined by these assays.

hOX2R = target: T3, hOX2R (Homo sapiens, UniProt O43614); experiment: radioligand binding assay, hOX2R; settings: membranes prepared from CHO cells expressing the OX2 receptor; read-out: hOX2R BIND hKi
T3 construct: expressed in transfected cells; host or cells: membranes of CHO cells
T3 sequence (O43614 1-444): T2 sequence (O43614 1-444)
Procedure: as §1

Compound | IC50 (hOX1R [1]) | IC50 (human orexin-2 receptor) | Ki (hOX1R [2]) | Ki (hOX2R)
CSc1ccnc(O[C@@H]2CC[C@@H](C)N(C(=O)c3ccccc3-n3nccn3)C2)c1C#N [Example 1, 4-(Methylsulfanyl)-2-{[(3R,6R)-6-methyl-1-{[2-(2H-1,2,3-triazol-2-yl)phenyl]carbonyl}-piperidin-3-yl]oxy}pyridine-3-carbonitrile] | 7440 nM | 39 nM |  | 
Cc1ccnc(O[C@@H]2CC[C@@H](C)N(C(=O)c3ccccc3-n3nccn3)C2)c1C#N [Example 2, 4-Methyl-2{[(3R,6R)-6-methyl-1-{[2-(2H-1,2,3-triazol-2-yl)phenyl]carbonyl}piperidin-3-yl]oxy}pyridine-3-carbonitrile] | 464 nM | 9.8 nM |  | 
Cc1ccnc(O[C@@H]2CC[C@@H](C)N(C(=O)c3ccc(Cl)cc3-n3nccn3)C2)c1C#N [Example 3, 2-{[(3R,6R)-1-{[4-Chloro-2(2H-1,2,3-triazol-2-yl)phenyl]carbonyl}-6-methylpiperidin-3-yl]oxy}-4-methylpyridine-3-carbonitrile] | 3710 nM | 73.6 nM |  | 
Cc1ccnc(O[C@@H]2CC[C@@H](C)N(C(=O)c3cnccc3-n3nccn3)C2)c1C#N [Example 4, 4-methyl-2-{[(3R,6R)-6-methyl-1-{[4-(2H-1,2,3-triazol-2-yl)pyridin-3-yl]carbonyl}piperidin-3-yl]oxy}pyridine-3-carbonitrile] |  |  | 1290 nM | 54 nM
Cc1ccnc(O[C@@H]2CC[C@@H](C)N(C(=O)c3c(F)cccc3-n3nccn3)C2)c1C#N [Example 5, 2-{[(3R,6R)-1-{[2-fluoro-6-(2H-1,2,3-triazol-2-yl)phenyl]carbonyl}-6-methylpiperidin-3-yl]oxy}-4-methylpyridine-3-carbonitrile] |  |  | 3610 nM | 34 nM
COc1cccc(-n2nccn2)c1C(=O)N1C[C@H](Oc2nccc(C)c2C#N)CC[C@H]1C [Example 6, 2-{[(3R,6R)-1-{[2-methoxy-6-(2H-1,2,3-triazol-2-yl)phenyl]carbonyl}-6-methylpiperidin-3-yl]oxy}-4-methylpyridine-3-carbonitrile] | 1160 nM | 67.6 nM |  | 
Cc1ccnc(O[C@@H]2CC[C@@H](C)N(C(=O)c3cccc(C)c3-n3nccn3)C2)c1C#N [Example 7, 4-methyl-2-{[(3R,6R)-6-methyl-1-{[3-methyl-2-(2H-1,2,3-triazol-2-yl)phenyl]carbonyl}piperidin-3-yl]oxy}pyridine-3-carbonitrile] | 457 nM | 20.3 nM |  | 
Cc1ccnc(O[C@@H]2CC[C@@H](C)N(C(=O)c3ccc(F)cc3-n3nccn3)C2)c1C#N [Example 8, 2-{[(3R,6R)-1-{[4-fluoro-2-(2H-1,2,3-triazol-2-yl)phenyl]carbonyl}-6-methylpiperidin-3-yl]oxy}-4-methylpyridine-3-carbonitrile] | 7390 nM | 59.8 nM |  | 
COc1ccc(C(=O)N2C[C@H](Oc3nccc(C)c3C#N)CC[C@H]2C)c(-n2nccn2)c1 [Example 9, 2-{[(3R,6R)-1-{[4-methoxy-2-(2H-1,2,3-triazol-2-yl)phenyl]carbonyl}-6-methylpiperidin-3-yl]oxy}-4-methylpyridine-3-carbonitrile] |  |  | 5660 nM | 60 nM
Cc1ccnc(O[C@@H]2CC[C@@H](C)N(C(=O)c3cccc(F)c3-n3nccn3)C2)c1C#N [Example 10, 2-{[(3R,6R)-1-{[3-fluoro-2-(2H-1,2,3-triazol-2-yl)phenyl]carbonyl}-6-methylpiperidin-3-yl]oxy}-4-methylpyridine-3-carbonitrile] | 3650 nM | 42.6 nM |  | 
Cc1ccc(-n2nccn2)c(C(=O)N2C[C@H](Oc3nccc(C)c3C#N)CC[C@H]2C)c1 [Example 11, 4-methyl-2-{[(3R,6R)-6-methyl-1-{[5-methyl-2-(2H-1,2,3-triazol-2-yl)phenyl]carbonyl}piperidin-3-yl]oxy}pyridine-3-carbonitrile] |  |  | 7 nM | 24 nM
COc1ccc(C(=O)N2C[C@H](Oc3nccc(C)c3C#N)CC[C@H]2C)c(-n2nccn2)n1 [Example 12, 2-{[(3R,6R)-1-{[6-methoxy-2-(2H-1,2,3-triazol-2-yl)pyridin-3-yl]carbonyl}-6-methylpiperidin-3-yl]oxy}-4-methylpyridine-3-carbonitrile] | 10000 nM | 280 nM |  | 
